Source: patent US20240270741A1 (Cogent Biosciences, Inc., priority 2023, published 2024)

The compounds below were run against FGFR2 (Homo sapiens, UniProt P21802) (assay: FGFR wild type enzyme assay (HTRF KinEASE-TK), FGFR2). Conditions: Enz FGFR2 (nM), FGFR2 wild type enzyme.
Sequence of FGFR2 (P21802 399-821 limits assumed): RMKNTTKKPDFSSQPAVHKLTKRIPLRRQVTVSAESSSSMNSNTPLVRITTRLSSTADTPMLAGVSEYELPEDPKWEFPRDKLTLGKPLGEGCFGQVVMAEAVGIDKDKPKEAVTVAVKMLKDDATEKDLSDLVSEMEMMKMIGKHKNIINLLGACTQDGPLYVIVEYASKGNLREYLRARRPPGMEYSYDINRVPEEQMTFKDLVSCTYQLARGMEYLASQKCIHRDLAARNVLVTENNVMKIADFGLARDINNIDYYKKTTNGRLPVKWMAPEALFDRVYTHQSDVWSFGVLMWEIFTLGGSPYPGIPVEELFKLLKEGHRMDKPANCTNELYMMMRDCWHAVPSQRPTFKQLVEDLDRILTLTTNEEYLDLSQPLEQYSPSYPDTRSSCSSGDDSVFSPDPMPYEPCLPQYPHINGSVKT

Row | IC50 [nM] | Structure (SMILES)
1 | 4 | CC(=O)N1CCC([C@@H](C)n2ncc(-c3cc(Sc4ncccc4F)c4c(C#N)cnn4c3)c2C)CC1 [Example 174, (R)-6-(1-(1-(1-acetylpiperidin-4-yl)ethyl)-5-methyl-1H-pyrazol-4-yl)-4-((3-fluoropyridin-2-yl)thio)pyrazolo[1,5-a]pyridine-3-carbonitrile]
2 | 1 | Cc1c(-c2cc(Sc3ncccc3F)c3c(C#N)cnn3c2)cnn1[C@H]1CC[C@@]2(CCNC2)CC1 [Example 175, 4-((3-fluoropyridin-2-yl)thio)-6-(5-methyl-1-((5r,8r)-2-azaspiro[4.5]decan-8-yl)-1H-pyrazol-4-yl)pyrazolo[1,5-a]pyridine-3-carbonitrile]
3 | 1 | Cc1c(-c2cc(Sc3ncccc3F)c3c(C#N)cnn3c2)cnn1[C@H]1CC[C@@H](NS(C)(=O)=O)CC1 [Example 177, N-((1s,4s)-4-(4-(3-cyano-4-((3-fluoropyridin-2-yl)thio)pyrazolo[1,5-a]pyridin-6-yl)-5-methyl-1H-pyrazol-1-yl)cyclohexyl)methane-sulfonamide]
4 | 1 | Cc1c(-c2cc(Sc3ncccc3F)c3c(C#N)cnn3c2)cnn1C1CCNC(C)(C)C1 (stereo not drawn) [Example 178]
5 | 15 | Cc1c(-c2cc(Sc3ncccc3F)c3c(C#N)cnn3c2)cnn1[C@H](C)CN(C)C [Example 180, (R)-6-(1-(1-(dimethylamino)propan-2-yl)-5-methyl-1H-pyrazol-4-yl)-4-((3-fluoropyridin-2-yl)thio)pyrazolo[1,5-a]pyridine-3-carbonitrile]
6 | 8 | Cc1c(-c2cc(Sc3ncccc3F)c3c(C#N)cnn3c2)cnn1C[C@H](C)N(C)C [Example 182, (S)-6-(1-(2-(dimethylamino)propyl)-5-methyl-1H-pyrazol-4-yl)-4-((3-fluoropyridin-2-yl)thio)pyrazolo[1,5-a]pyridine-3-carbonitrile]
7 | 8 | N#Cc1cnn2cc(-c3cnn4c3CNCC4)cc(Sc3ncccc3F)c12 [Example 183, 4-((3-fluoropyridin-2-yl)thio)-6-(4,5,6,7-tetrahydropyrazolo[1,5-a]pyrazin-3-yl)pyrazolo[1,5-a]pyridine-3-carbonitrile]
8 | 1.6 | Cc1c(-c2cc(Sc3ncccc3F)c3c(C#N)cnn3c2)cnn1[C@H]1CC[C@@H](O)CC1 [Example 184, 4-((3-fluoropyridin-2-yl)thio)-6-(1-((1s,4s)-4-hydroxycyclohexyl)-5-methyl-1H-pyrazol-4-yl)pyrazolo[1,5-a]pyridine-3-carbonitrile]
9 | 1 | Cc1c(-c2cc(Sc3ncccc3F)c3c(C#N)cnn3c2)cnn1[C@H]1CC[C@H](N)CC1 [Example 187, 6-(1-((1r,4r)-4-aminocyclohexyl)-5-methyl-1H-pyrazol-4-yl)-4-((3-fluoropyridin-2-yl)thio)pyrazolo[1,5-a]pyridine-3-carbonitrile]
10 | 3 | CC(=O)N1CCC[C@H](n2ncc(-c3cc(Sc4ncc(F)cc4F)c4c(C#N)cnn4c3)c2C)C1 [Example 190, (S)-6-(1-(1-acetylpiperidin-3-yl)-5-methyl-1H-pyrazol-4-yl)-4-((3,5-difluoropyridin-2-yl)thio)pyrazolo[1,5-a]pyridine-3-carbonitrile]
11 | 4 | Cc1c(-c2cc(Sc3ncc(F)cc3F)c3c(C#N)cnn3c2)cnn1C1CCN(C(=O)CO)CC1 [Example 191, 4-((3,5-difluoropyridin-2-yl)thio)-6-(1-(1-(2-hydroxyacetyl)piperidin-4-yl)-5-methyl-1H-pyrazol-4-yl)pyrazolo[1,5-a]pyridine-3-carbonitrile]
12 | 2 | N#Cc1cnn2cc(-c3cnn([C@@H]4CCCNC4)c3)cc(Sc3ncccc3F)c12 [Example 192, (R)-4-((3-fluoropyridin-2-yl)thio)-6-(1-(piperidin-3-yl)-1H-pyrazol-4-yl)pyrazolo[1,5-a]pyridine-3-carbonitrile]
13 | 2 | Cc1c(-c2cc(Sc3ncccc3F)c3c(C#N)cnn3c2)cnn1C1CCN(C(=O)[C@@H](C)O)CC1 [Example 193, (R)-4-((3-fluoropyridin-2-yl)thio)-6-(1-(1-(2-hydroxypropanoyl)piperidin-4-yl)-5-methyl-1H-pyrazol-4-yl)pyrazolo[1,5-a]pyridine-3-carbonitrile]
14 | 1.4 | Cc1c(-c2cc(Sc3ncccc3F)c3c(C#N)cnn3c2)cnn1C1CCN(CC(=O)N(C)C)CC1 [Example 195, 2-(4-(4-(3-cyano-4-((3-fluoropyridin-2-yl)thio)pyrazolo[1,5-a]pyridin-6-yl)-5-methyl-1H-pyrazol-1-yl)piperidin-1-yl)-N,N-dimethylacetamide]
15 | 1 | Cc1c(-c2cc(Sc3ncccc3F)c3c(C#N)cnn3c2)cnn1C1CCN(C(=O)[C@@H]2C[C@@H](F)CN2C)CC1 [Example 196, 6-(1-(1-((2S,4R)-4-fluoro-1-methylpyrrolidine-2-carbonyl)piperidin-4-yl)-5-methyl-1H-pyrazol-4-yl)-4-((3-fluoropyridin-2-yl)thio)pyrazolo[1,5-a]pyridine-3-carbonitrile]
16 | 2 | Cc1c(-c2cc(Sc3ncccc3F)c3c(C#N)cnn3c2)cnn1C1CC2CCC(C1)N2 (stereo not drawn) [Example 203, 4-[(3-fluoro-2-pyridiyl)sulfonyl]-6-[1-[1-(1-prop-2-enoylazetidine-3-carbonyl)-4-piperidyl]pyrazol-4-yl]pyrazolo[1,5-a]pyridine-3-carbonitrile]

Further lines, the compound ahead of its results:

Row | Structure (SMILES) | IC50 [nM]
17 | CC(=O)N1CCC2(CC1)CC(n1ncc(-c3cc(Sc4ncccc4F)c4c(C#N)cnn4c3)c1C)C2 [Example 176, 6-(1-(7-acetyl-7-azaspiro[3.5]nonan-2-yl)-5-methyl-1H-pyrazol-4-yl)-4-((3-fluoropyridin-2-yl)thio)pyrazolo[1,5-a]pyridine-3-carbonitrile] | 1.5
18 | Cc1c(-c2cc(Sc3ncccc3F)c3c(C#N)cnn3c2)cnn1[C@@H](C)CN(C)C [Example 179, (S)-6-(1-(1-(dimethylamino)propan-2-yl)-5-methyl-1H-pyrazol-4-yl)-4-((3-fluoropyridin-2-yl)thio)pyrazolo[1,5-a]pyridine-3-carbonitrile] | 3
19 | Cc1c(-c2cc(Sc3ncccc3F)c3c(C#N)cnn3c2)cnn1C[C@@H](C)N(C)C [Example 181, (R)-6-(1-(2-(dimethylamino)propyl)-5-methyl-1H-pyrazol-4-yl)-4-((3-fluoropyridin-2-yl)thio)pyrazolo[1,5-a]pyridine-3-carbonitrile] | 7
20 | Cc1c(-c2cc(Sc3ncccc3F)c3c(C#N)cnn3c2)cnn1[C@H]1CC[C@H](O)CC1 [Example 185, 4-((3-fluoropyridin-2-yl)thio)-6-(1-((1r,4r)-4-hydroxycyclohexyl)-5-methyl-1H-pyrazol-4-yl)pyrazolo[1,5-a]pyridine-3-carbonitrile] | 1
21 | Cc1c(-c2cc(Sc3ncccc3F)c3c(C#N)cnn3c2)cnn1[C@H]1CC[C@@H](N)CC1 [Example 186, 6-(1-((1s,4s)-4-aminocyclohexyl)-5-methyl-1H-pyrazol-4-yl)-4-((3-fluoropyridin-2-yl)thio)pyrazolo[1,5-a]pyridine-3-carbonitrile] | 3
22 | Cc1c(-c2cc(Sc3ccccc3C#N)c3c(C#N)cnn3c2)cnn1[C@H]1CC[C@@H](O)CC1 [Example 188, 4-((2-cyanophenyl)thio)-6-(1-((1s,4s)-4-hydroxycyclohexyl)-5-methyl-1H-pyrazol-4-yl)pyrazolo[1,5-a]pyridine-3-carbonitrile] | 0.5
23 | Cc1c(-c2cc(Sc3ccccc3C#N)c3c(C#N)cnn3c2)cnn1[C@H]1CC[C@H](O)CC1 [Example 189, 4-((2-cyanophenyl)thio)-6-(1-((1r,4r)-4-hydroxycyclohexyl)-5-methyl-1H-pyrazol-4-yl)pyrazolo[1,5-a]pyridine-3-carbonitrile] | 0.7
24 | Cc1c(-c2cc(Sc3ncccc3F)c3c(C#N)cnn3c2)cnn1C1CCN(C(=O)[C@H](C)O)CC1 [Example 194, (S)-4-((3-fluoropyridin-2-yl)thio)-6-(1-(1-(2-hydroxypropanoyl)piperidin-4-yl)-5-methyl-1H-pyrazol-4-yl)pyrazolo[1,5-a]pyridine-3-carbonitirle] | 2
25 | Cc1c(-c2cc(Sc3ncccc3F)c3c(C#N)cnn3c2)cnn1[C@H](C)[C@H](O)CO [Example 197, 6-(1-((2R,3S)-3,4-dihydroxybutan-2-yl)-5-methyl-1H-pyrazol-4-yl)-4-((3-fluoropyridin-2-yl)thio)pyrazolo[1,5-a]pyridine-3-carbonitrile] | 3
26 | Cc1c(-c2cc(Sc3ncccc3F)c3c(C#N)cnn3c2)cnn1[C@@H](C)[C@H](O)CO [Example 198, 6-(1-((2S,3S)-3,4-dihydroxybutan-2-yl)-5-methyl-1H-pyrazol-4-yl)-4-((3-fluoropyridin-2-yl)thio)pyrazolo[1,5-a]pyridine-3-carbonitrile] | 21
27 | Cc1c(-c2cc(Sc3ccccc3C#N)c3c(C#N)cnn3c2)cnn1C1CC2CCC(C1)N2C (stereo not drawn) [Example 199, 4-((2-cyanophenyl)thio)-6-(5-methyl-1-(8-methyl-8-azabicyclo[3.2.1]octan-3-yl)-1H-pyrazol-4 yl)pyrazolo[1,5-a]pyridine-3-carbonitrile] | 1
28 | Cc1c(-c2cc(Sc3ccccc3C#N)c3c(C#N)cnn3c2)cnn1CC1CCNCC1 [Example 200, 4-((2-cyanophenyl)thio)-6-(5-methyl-1-(piperidin-4-ylmethyl)-1H-pyrazol-4-yl)pyrazolo[1,5-a]pyridine-3-carbonitrile] | 1
29 | Cc1c(-c2cc(Sc3ccccc3C#N)c3c(C#N)cnn3c2)cnn1C[C@H]1CCCNC1 [Example 201, (S)-4-((2-cyanophenyl)thio)-6-(5-methyl-1-(piperidin-3-ylmethyl)-1H-pyrazol-4-yl)pyrazolo[1,5-a]pyridine-3-carbonitrile] | 2
30 | CC(=O)N1CCC[C@H](Cn2ncc(-c3cc(Sc4ccccc4C#N)c4c(C#N)cnn4c3)c2C)C1 [Example 202, (S)-6-(1-((1-acetylpiperidin-3-yl)methyl)-5-methyl-1H-pyrazol-4-yl)-4-((2-cyanophenyl)thio)pyrazolo [1,5-a]pyridine-3-carbonitrile] | 2
